Laboratory results as given in the NIST ThermoML archive (doi:10.1016/j.jct.2014.05.015).
± gives the expanded uncertainty stated by the source.

Tests used:
[1] = mn = molality of the nth substance listed, in mol/kg; details: 100 kPa, Liquid; for speed of sound: Frequency=3 MHz, Sing-around technique in a fixed-path interferometer; for mass density: Vibrating tube method
[2] = 100 kPa, Liquid

Row | SMILES | speed of sound ([1]; 293.15 K, m1 = 0.1) | speed of sound ([1]; 293.15 K, m1 = 0.2) | speed of sound ([1]; 293.15 K, m1 = 0.3) | mass density ([1]; 293.15 K, m1 = 0.1) | mass density ([1]; 293.15 K, m1 = 0.2) | mass density ([1]; 293.15 K, m1 = 0.3) | speed of sound ([1]; 298.15 K, m1 = 0.1) | speed of sound ([1]; 298.15 K, m1 = 0.2) | speed of sound ([1]; 298.15 K, m1 = 0.3) | mass density ([1]; 298.15 K, m1 = 0.1) | mass density ([1]; 298.15 K, m1 = 0.2) | mass density ([1]; 298.15 K, m1 = 0.3) | speed of sound ([1]; 303.15 K, m1 = 0.1) | speed of sound ([1]; 303.15 K, m1 = 0.2) | speed of sound ([1]; 303.15 K, m1 = 0.3) | mass density ([1]; 303.15 K, m1 = 0.1) | mass density ([1]; 303.15 K, m1 = 0.3) | speed of sound ([1]; 308.15 K, m1 = 0.1) | speed of sound ([1]; 308.15 K, m1 = 0.2) | speed of sound ([1]; 308.15 K, m1 = 0.3) | other results
1 | O=C[C@H](O)[C@@H](O)[C@H](O)[C@H](O)CO [D-glucose] + O | 1489.2 ± 1.6 m/s | 1496 ± 1.6 m/s | 1502.5 ± 1.6 m/s | 1005.07 ± 0.26 kg/m3 | 1012.08 ± 0.27 kg/m3 | 1018.81 ± 0.27 kg/m3 | 1502.9 ± 1.6 m/s | 1509.4 ± 1.6 m/s | 1515.8 ± 1.6 m/s | 1003.87 ± 0.26 kg/m3 | 1010.89 ± 0.27 kg/m3 | 1017.52 ± 0.27 kg/m3 | 1514.8 ± 1.6 m/s | 1521.2 ± 1.6 m/s | 1527.3 ± 1.6 m/s | 1002.44 ± 0.26 kg/m3 | 1016.01 ± 0.27 kg/m3 | 1525.3 ± 1.6 m/s | 1531.2 ± 1.6 m/s | 1537.2 ± 1.6 m/s | mass density ([1]; 308.15 K, m1 = 0.1): 1000.79 ± 0.26 kg/m3; mass density ([1]; 308.15 K, m1 = 0.3): 1014.29 ± 0.27 kg/m3; speed of sound ([1]; 313.15 K, m1 = 0.1): 1534.1 ± 1.6 m/s; speed of sound ([1]; 313.15 K, m1 = 0.2): 1539.8 ± 1.6 m/s; speed of sound ([1]; 313.15 K, m1 = 0.3): 1545.7 ± 1.6 m/s; mass density ([1]; 313.15 K, m1 = 0.1): 998.945 ± 0.26 kg/m3; mass density ([1]; 313.15 K, m1 = 0.2): 1005.86 ± 0.26 kg/m3; mass density ([1]; 313.15 K, m1 = 0.3): 1012.36 ± 0.27 kg/m3
2 | OC[C@H]1O[C@@](CO)(O[C@H]2O[C@H](CO)[C@@H](O)[C@H](O)[C@H]2O)[C@@H](O)[C@@H]1O [D-sucrose] + O | 1492.3 ± 1.3 m/s | 1502.4 ± 1.3 m/s | 1512.9 ± 1.3 m/s | 1011.49 ± 0.14 kg/m3 | 1024.67 ± 0.14 kg/m3 | 1037.84 ± 0.14 kg/m3 | 1505.9 ± 1.3 m/s | 1515.7 ± 1.3 m/s | 1525.7 ± 1.3 m/s | 1010.26 ± 0.14 kg/m3 | 1023.37 ± 0.14 kg/m3 | 1036.47 ± 0.14 kg/m3 | 1517.8 ± 1.3 m/s | 1527 ± 1.3 m/s | 1536.8 ± 1.3 m/s | 1008.81 ± 0.14 kg/m3 | 1034.89 ± 0.14 kg/m3 | 1528.1 ± 1.3 m/s | 1536.9 ± 1.3 m/s | 1546.3 ± 1.3 m/s | mass density ([1]; 303.15 K, m1 = 0.2): 1021.85 ± 0.14 kg/m3; mass density ([1]; 308.15 K, m1 = 0.1): 1007.14 ± 0.13 kg/m3; mass density ([1]; 308.15 K, m1 = 0.2): 1020.13 ± 0.14 kg/m3; mass density ([1]; 308.15 K, m1 = 0.3): 1033.11 ± 0.14 kg/m3; speed of sound ([1]; 313.15 K, m1 = 0.1): 1536.7 ± 1.3 m/s; speed of sound ([1]; 313.15 K, m1 = 0.2): 1545.4 ± 1.3 m/s; speed of sound ([1]; 313.15 K, m1 = 0.3): 1554.2 ± 1.4 m/s; mass density ([1]; 313.15 K, m1 = 0.1): 1005.28 ± 0.13 kg/m3; mass density ([1]; 313.15 K, m1 = 0.2): 1018.22 ± 0.14 kg/m3; mass density ([1]; 313.15 K, m1 = 0.3): 1031.16 ± 0.14 kg/m3
3 | O [water] |  |  |  |  |  |  |  |  |  |  |  |  |  |  |  |  |  |  |  |  | mass density ([2]; 308.15 K, Vibrating tube method): 994.061 ± 0.26 kg/m3; speed of sound ([2]; 313.15 K, Frequency=3 MHz, Sing-around technique in a fixed-path interferometer): 1528.8 ± 1.6 m/s
